{
  "source": "ChEMBL document CHEMBL1123518",
  "about": "“Synthesis and biological evaluation of irreversible inhibitors of aldose reductase” (J Med Chem, 1986)",
  "key": {"[1]": {"target": "Aldo-keto reductase family 1 member B1 (Rattus norvegicus) (UniProt P07943)", "assay": "Compound was tested for % inhibition against RLAR (aldose reductase)at a concentration of 10 uM, pre-incubated with 100 uM sorbinil"}, "[2]": {"target": "Aldo-keto reductase family 1 member B1 (Rattus norvegicus) (UniProt P07943)", "assay": "Compound was tested for % inhibition against RLAR (aldose reductase) at a concentration of 10 micro M."}, "[3]": {"target": "Aldo-keto reductase family 1 member B1 (Rattus norvegicus, UniProt P07943)", "assay": "Compound was tested for 50% inhibitory concentration that was required for irreversible inhibition of aldose reductase"}},
  "data": [
    {"smiles": "S=C=Nc1ccccc1", "values": [
      {"measurement": "inhibition", "setting": "[1]", "value": 5, "unit": "%"},
      {"measurement": "inhibition", "setting": "[2]", "value": 34, "unit": "%"}
    ]},
    {"smiles": "COC(=O)CN1C(=O)c2cccc3cc(N=C=S)cc(c23)C1=O", "values": [
      {"measurement": "IC50", "setting": "[3]", "value": 14, "unit": "µM"}
    ]},
    {"smiles": "[N-]=[N+]=Nc1cc2c3c(cccc3c1)C(=O)N(CC(=O)O)C2=O", "values": [
      {"measurement": "IC50", "setting": "[3]", "value": 3.6, "unit": "µM"}
    ]},
    {"smiles": "O=C(O)CN1C(=O)c2cccc3cc(N=C=S)cc(c23)C1=O", "values": [
      {"measurement": "inhibition", "setting": "[1]", "value": 5, "unit": "%"},
      {"measurement": "IC50", "setting": "[3]", "value": 0.3, "unit": "µM"},
      {"measurement": "inhibition", "setting": "[2]", "value": 57, "unit": "%"}
    ]},
    {"smiles": "COC(=O)CN1C(=O)c2cccc3cc(N=[N+]=[N-])cc(c23)C1=O", "values": [
      {"measurement": "IC50", "setting": "[3]", "value": 38, "unit": "µM"}
    ]}
  ]
}
